From PMC8703605, “Enhancement of the Topical Bioavailability and Skin Whitening Effect of Genistein by Using Microemulsions as Drug Delivery Carriers” (Pharmaceuticals, 2021)
≈ marks a conversion by molar mass, not a printed value. Read-outs that look alike come from different tables or passages of the source.

How the values were obtained:
rats = tested on: rats; design: method as in PMID 16198038, PMID 9748575, PMID 2548712; conditions: cited from earlier work
[1] = Solubility of genistein in different vehicles (shake flask, HPLC); format: physicochemical
Method: An excess amount of genistein was added to 1 mL each of the vehicles, including receptor buffer and oils, into a 1.5-mL Eppendorf, which was placed on a reciproacting shaker (Shaking Bath, Model B601D, Firstek Co., Ltd., Taipei, Taiwan) and shaken for more than 24 h at room temperature. Then each smaple was centrifuged at 12,000 rpm for 10 min. The drug concentration in supernatant was analyzed by HPLC.
Hitachi HPLC system (Hitachi, Tokyo, Japan), including model L-7100 pump, L-5210 autosampler, model L-4000H detector, and Merck Lichrocart® 100 RP 18 column (250 mm × 4 mm, 5 μm), was used. The mobile phase was composed of methanol and 0.05% phosphoric acid aqueous solution at ratios of 80/20 v/v. The flow rate and detection wavelength were at 1.0 mL/min and 230 nm, respectively. Diazepam solution was used as internal standard. The analytical method was successfully validated for linearity (1.0~100.0 μg/mL), with a determination coefficient (R^2) of 0.9997, precision of coefficient of variation (CV, %) of 4.16%, and accuracy of relative error (RE, %) of 5.71%. The limit of quantitation was 0.5 µg/mL.

Salmonella typhimurium = tested on: Salmonella typhimurium; design: method as in PMID 16198038, PMID 9748575, PMID 2548712; conditions: cited from earlier work
[2] = In vivo pharmacokinetic determination; conditions: 20 mg/kg; for Cmax / Tmax / half-life / AUC: male, Sprague-Dawley, rat, in vivo; for AUC: AUC0→ꝏ
Method: Rats were divided into two groups, i.e., tranderaml (test) group and oral (control) group, each of three. Rats were anesthetized by 10% chloral hydrate (dosing 0.3 mL/100 g) for intraperitoneal injection. After being anesthetized, hairs on the abdominal skin were removed by an electric shaver. Then, a glass ring with a diameter of 3 cm was fixed on the skin by a quick-drying glue. The applied dose of 20 mg/kg of the tested microemulsion formulation was placed inside the glass ring. […] Blood samples of approximately 0.6 mL were collected from the jugular vein and placed into a 1.5-mL Eppendorf at predetermined time intervals after transdermal administration. Then, the blood sample was centrifuged at 12,000 rpm for 10 min. The plasma samples were stored at −20 °C until analysis. Three to six replicates were conducted for each formulation.
Sample preparation [49, 53, 54]: A 100 μL of plasma samples was incubated with 100 μL of the sulfatase (approximately 200 unit) at 37 ± 0.5 °C for 5 h. Then, 100 µL Nicotine 4 µg/mL was used as internal standard added to the sample, then vortexed for 10 s. A total of 1 mL tert-methyl butyl ether was added for extract solution and vortexed for 10 min and then centrifuged at 10,000 rpm for 10 min. The supernatant of 800 µL was transferred to Eppendorf and evaporated to dryness in the vacuum oven (EYELA CVE-3000, Tokyo, Japan) for 1 h and 40 °C. The residue was reconstituted with 100 µL methanol and analyzed.
The pharmacokinetic analysis includes the following quantities: area under the curve (AUC), maximum plasma concentration (Cmax), the time needed to reach the maximum plasma concentration (Tmax), and the half-life (t1/2) of the drug. All values are presented as the mean ± standard deviation (SD). All data were processed using Phoenix WinNonlin 6.3 (Pharsight Corporation, Sunnyvale, CA, USA) to construct pharmacokinetic profiles. Data were analyzed by using the ANOVA test to evaluate the differences between the groups, and values of p < 0.05 indicated significant differences compared with control.

[3] = design: method as in PMID 20190449; conditions: at 25 °C; cited from earlier work
mice = tested on: mice; design: method as in PMID 16198038, PMID 9748575, PMID 2548712; conditions: cited from earlier work

O=c1c(-c2ccc(O)cc2)coc2cc(O)cc(O)c12 [genistein, 4′,5,7-trihydroxyisoflavone]
Mutagenicity and teratogenicity (rats): not mutagenic or teratogenic | Increase of solubility in co-surfactant vs distilled water ([1]; co-surfactant): > 8415 fold | solubility ([1]; in Distilled water, room temperature, read-out: Solubility): ~0.01 mg/mL (≈ 0.037 mM) | solubility ([1]; microemulsion with PEG 400 concentration 0, read-out: Solubility in microemulsion): 11.1 mg/mL (≈ 41 mM) | solubility ([1]; microemulsion with PEG 400 concentration 20%, read-out: Solubility in microemulsion): 32 mg/mL (≈ 118 mM) | Increase of solubility in oil vs distilled water ([1]; oil): more than 13 fold | solubility ([1]; oil or lipid, thermodynamic from solid, in Capryol 90, room temperature, read-out: Solubility): 5.2 ± 0.23 mg/mL (≈ 19.2 mM) | solubility ([1]; oil or lipid, thermodynamic from solid, in Oleic acid, room temperature, read-out: Solubility): 0.13 ± 0.02 mg/mL (≈ 0.481 mM) | solubility ([1]; oil or lipid, thermodynamic from solid, in Peceol, room temperature, read-out: Solubility): 0.36 ± 0.01 mg/mL (≈ 1.33 mM) | solubility ([1]; organic solvent or mixture, thermodynamic from solid, in PEG 400, room temperature, read-out: Solubility): 84.2 ± 5.61 mg/mL (≈ 311 mM) | solubility ([1]; organic solvent or mixture, thermodynamic from solid, in Transcutol HP, room temperature, read-out: Solubility): 94.7 ± 3.92 mg/mL (≈ 350 mM) | Increase of solubility in surfactant vs distilled water ([1]; surfactant): > 1903 fold | solubility ([1]; thermodynamic from solid, in Brij 30, room temperature, read-out: Solubility): 27.7 ± 1.8 mg/mL (≈ 103 mM) | solubility ([1]; thermodynamic from solid, in Cremophor EL, room temperature, read-out: Solubility): 19.4 ± 6.15 mg/mL (≈ 71.9 mM) | solubility ([1]; thermodynamic from solid, in Labrasol, room temperature, read-out: Solubility): 55.5 ± 3.56 mg/mL (≈ 205 mM) | solubility ([1]; thermodynamic from solid, in Tween 80, room temperature, read-out: Solubility): 19 ± 1.37 mg/mL (≈ 70.4 mM) | solubility ([1]; water, thermodynamic from solid, in Distilled water, room temperature, read-out: Solubility): 0.01 mg/mL (≈ 0.037 mM) | Mutagenicity (Salmonella typhimurium): not mutagenic | Cmax ([2]; po): 3120 ± 1800 ng/mL | Tmax ([2]; po): 3.67 ± 0.43 h | half-life ([2]; po): 6.52 ± 1.24 h | AUC ([2]; po, rats, aqueous suspension, n = 3): 33900 ± 4760 ng·h/mL | Cmax ([2]; topical or ocular): 9120 ± 570 ng/mL | Tmax ([2]; topical or ocular): 7.26 ± 1.11 h | half-life ([2]; topical or ocular): 19.3 ± 5.05 h | AUC ([2]; topical or ocular, rats, transdermal, microemulsion, n = 3): 329000 ± 50000 ng·h/mL | AUC0→ꝏ ([2]; rats, oral, aqueous suspension, n = 3): 33910 ± 4760 ng·h/mL | solubility in water [3]: 5.3 µM (≈ 1.43 µg/mL) | Mutagenicity and teratogenicity (mice): not mutagenic or teratogenic
